Tests used:
wild-type GM-CSF BMDMs = experiment: Cytokine/chemokine production by wild-type GM-CSF BMDMs on ligand-coated plates; type: cell-based, C57BL/6 mice; conditions: wild-type BMDMs, coated plates 0.1 or 1 nmol/well, 24 hours, ELISA
Protocol: (§1) Preparation of ligand-coated plates: Brartemicin analogues 9a-9i, TDM (Carbosynth, Sigma Aldrich), and TDB^14 were dissolved in CHCl3:MeOH (2:1, 1 mM), diluted in isopropanol ([…]) and added to 96-well plates (20 μL/well). The solvents were evaporated and the coated plates were used immediately.
Murine bone-marrow derived macrophages: For the preparation of murine bone-marrow derived macrophages, bone marrow cells were collected from the tibias and femurs of C57BL/6 mice and cultured (250,000 cells/mL) in complete RPMI media [RPMI-1640 (Gibco) with 10% heat inactivated fetal bovine serum (Gibco), 100 unit/mL penicillin-streptomycin (Gibco) and 2 mM Glutamax (Gibco)] supplemented with 50 ng/mL GM-CSF (clone X63/GM-CSF murine cells). Cells were incubated at 37° C. (5% CO2) for 8 days (cells fed by replacing half the media on days 3 and 6). On day 8, all media was removed and the cells were washed with Dulbecco's Phosphate-Buffered Saline (DPBS, Gibco) to remove any loosely-adherent cells. The BMDMs were harvested with StemPro Acutase (1 mL/well, 15 minutes at room temperature, Gibco) and seeded onto a pre-coated 96-well plate. The supernatant was collected and analysed for cytokine/chemokine production after 24 hours.
Cytokine analysis: IL-1β, IFN-γ, IL-6, TNF-α (BD Biosciences), IL-17, and MIP-2 (R&D) levels were determined via sandwich ELISA according to the manufacturer's instructions.
First, the ability of the compounds to activate GM-CSF BMDMs was determined by monitoring the secretion of the inflammatory cytokines TNF, IL-6, and IL-1β and the chemokine, MIP-2, in a ligand-coated plate assay (FIG. 2).
To gain insight into the capacity of the 2G-series of brartemicin analogues to induce an inflammatory immune response, the analogues were then screened for their ability to activate WT and Mincle^−/− BMDMs, with cellular activation being determined by the measurement of IL-1B using ELISA (FIG. 6).

C57BL/6 mice = experiment: Delayed-type hypersensitivity immunisation with OVA in oil-in-water emulsion; type: in vivo
Protocol: Delayed-type hypersensitivity: Mice were sensitised by subcutaneous injection with oil-in-water emulsions (mineral oil/Tween-80/PBS, 9:1:90, v/v/v) containing OVA only (200 μg), OVA+TDB (OVA=200 μg, TDB=0.3 μmol), OVA+9a (OVA=200 μg, 9a=0.3 μmol) or no OVA. After seven days, the mice were challenged with OVA (100 μg/footpad) and after a further seven days, the mice were sacrificed and their spleens harvested. For in vitro restimulation, splenocytes were restimulated with OVA and analysed for spenocyte number (measured at 450 nm after 3 hours, Cell Count Reagent SF, Nacalai Tesque Inc.), IFN-γ production, and IL-17 production. Footpad swelling was measured using a venier caliper pre-challenge, 24 hours post-challenge, and 48 hours post-challenge. Sera were collected from each mouse on days 0, 7, and 14 and analysed for OVA-specific antibody titers by ELISA using HRP coupled goat anti-mouse IgG (GE Health-care), IgG1, IgG2b, IgG2c, and IgG3 (SouthernBiotec). EC50 were defined by plotting the absorbance at 450 nm against log of serum concentration. Antibody titration curves were plotted using GraphPad Prism7 (GraphPad Software).
Compound 9a was then evaluated in vivo to confirm its capacity to induce a Th1 antigen-specific response using a delayed-type hypersensitivity immunisation protocol. To this end, four groups of C57BL/6 mice were immunised by subcutaneous injection with oil-in-water emulsions containing either OVA only, OVA+C18dMeBrar (9a), OVA+TDB, or no OVA. After seven days the mice were challenged with OVA (100 μg per footpad) and after a further seven days, the splenocytes were isolated and restimulated with OVA at three concentrations (10, 30, or 100 μg/mL). The immune response was measured by determining footpad swelling, production of IFN-γ and IL-17 (FIG. 7b), T cell proliferation (FIG. 4a), and antibody titres (FIG. 4c). […] Accordingly, the ability of C18dMeBrar (9a) to lead to an enhanced Th1 immune response was even more striking. This overall immune profile was also reflected in the antibody production by immunised mice. […] A high IgG2c:IgG1 ratio is commonly associated with Th1 responses and a lower ratio is associated with Th2 responses. The production of IgG2c in mice immunised with C18dMeBrar increased three-fold as compared to OVA alone, providing evidence that C18dMeBrar induces a Th1-biased immune response.

hMincle-Ig = target: T1, hMincle-Ig (Homo sapiens, UniProt Q9ULY5); experiment: In vitro Mincle binding assay (ELISA) with hMincle-Ig fusion protein; conditions: plate-coated ligand 0.1 nmol/well
T1 construct: using soluble Mincle-Ig fusion-proteins; made in house
T1 sequence (Q9ULY5 41-219 limits assumed): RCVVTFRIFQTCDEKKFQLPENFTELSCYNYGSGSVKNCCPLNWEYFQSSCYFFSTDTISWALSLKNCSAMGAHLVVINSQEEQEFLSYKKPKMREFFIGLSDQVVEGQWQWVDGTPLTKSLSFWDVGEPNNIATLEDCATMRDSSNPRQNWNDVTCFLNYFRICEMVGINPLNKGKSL
Protocol: as §1
(§2) In vitro Mincle binding assay: The preparation of mMincle- and hMincle-Ig fusion proteins have been previously described. Plate-coated glycolipids 9a-i, TDB, and TDM were incubated with hMincle-Ig, mMincle-Ig, or hIgG1-Fc (Ig) [3 μg/mL in binding buffer (20 mM Tris-HCl, 150 mM NaCl, 1 mM CaCl2), 2 mM MgCl2, pH 7.0)]. Detection of bound protein was achieved via incubation with anti-hIgG-HRP followed by the addition of a colorimetric substrate and measurement of OD at 450 nm. Background was accounted for by subtracting the hIgG1-Fc OD450 values from fusion protein OD450 values
(§3) The synthesised brartemicin analogues prepared in Example 1 were first tested for their ability to bind to both human and murine Mincle in an enzyme-linked immunosorbent assay (ELISA) using soluble Mincle-Ig fusion-proteins (FIG. 1a).

mMincle-Ig = target: T2, mMincle-Ig (Mus musculus, UniProt Q9R0Q8); experiment: In vitro Mincle binding assay (ELISA) with mMincle-Ig fusion protein; parameters: species or system murine; conditions: plate-coated ligand 0.1 nmol/well
T2 construct: using soluble Mincle-Ig fusion-proteins; made in house
T2 sequence (Q9R0Q8 46-214 limits assumed): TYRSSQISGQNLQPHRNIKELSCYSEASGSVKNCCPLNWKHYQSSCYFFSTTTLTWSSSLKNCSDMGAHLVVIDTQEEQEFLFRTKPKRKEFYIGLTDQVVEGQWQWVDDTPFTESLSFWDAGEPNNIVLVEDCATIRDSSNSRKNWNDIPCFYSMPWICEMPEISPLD
Protocol: as §1, §2, §3

hMincle+FcRγ = target: T3, hMincle+FcRγ (Homo sapiens, UniProt Q9ULY5); experiment: 2B4-NFAT-GFP reporter cells expressing hMincle+FcRγ; type: cell-based; conditions: ligand-coated plates 0.01, 0.1 or 1 nmol/well, 18 hours
T3 construct: expressed in transfected cells; host or cells: 2B4-NFAT-GFP reporter cells
T3 sequence (Q9ULY5 1-219): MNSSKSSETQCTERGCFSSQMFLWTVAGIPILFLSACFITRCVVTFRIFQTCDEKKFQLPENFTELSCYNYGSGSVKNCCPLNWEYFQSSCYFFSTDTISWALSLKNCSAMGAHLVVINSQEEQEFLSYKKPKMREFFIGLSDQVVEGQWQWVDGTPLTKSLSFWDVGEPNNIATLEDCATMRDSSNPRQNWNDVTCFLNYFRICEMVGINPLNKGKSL
Protocol: as §1
(§4) 2B4-NFAT-GFP reporter cells: 2B4-NFAT-GFP reporter cells expressing mMincle+FcRγ, hMincle+FcRγ, or FcRγ only have been previously described. […] The reporter cells were harvested, stained with propidium iodide, and analysed for NFAT-GFP expression using flow cytometry (FACS Calibur).
(§5) To determine whether the Mincle binding observed in Example 1 correlated with cellular activation, nuclear factor of activated T cells (NFAT)-green fluorescent protein (GFP) reporter cells expressing mMincle or hMincle coupled to FcRγ were stimulated using plates coated with TDM, TDB, brartemicin (9i), or analogues 9a-9h.
(§6) Activation of the reporter cells was measured through the production of GFP, which was monitored by flow cytometry (FIGS. 1b and 3c).
(§7) With the compounds 43a-h in hand, the ability of these analogues to bind and signal through Mincle was assessed (FIG. 5). Accordingly, NFAT-GFP reporter cells expressing mMincle+FcRγ, hMincle+FcRγ, or FcRγ-only were stimulated with the 2G-brartemicin analogues 43a-h, TDB, iPrOH, or the p-OC18H37 substituted analogue, 9f. Reporter cell activation was measured by the production of NFAT-GFP, which was analysed by flow cytometry.

mMincle+FcRγ = target: T4, mMincle+FcRγ (Mus musculus, UniProt Q9R0Q8); experiment: 2B4-NFAT-GFP reporter cells expressing mMincle+FcRγ; type: cell-based, murine; conditions: ligand-coated plates 0.01, 0.1 or 1 nmol/well, 18 hours
T4 construct: expressed in transfected cells; host or cells: 2B4-NFAT-GFP reporter cells
T4 sequence (Q9R0Q8 1-214): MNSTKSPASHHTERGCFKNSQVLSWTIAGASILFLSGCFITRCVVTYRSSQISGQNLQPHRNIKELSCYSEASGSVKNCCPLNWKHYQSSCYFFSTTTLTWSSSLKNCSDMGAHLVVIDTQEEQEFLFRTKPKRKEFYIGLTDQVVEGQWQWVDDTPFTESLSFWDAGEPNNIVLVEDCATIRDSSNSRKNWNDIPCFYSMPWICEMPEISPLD
T4 sequence (P20491 19-86 partner): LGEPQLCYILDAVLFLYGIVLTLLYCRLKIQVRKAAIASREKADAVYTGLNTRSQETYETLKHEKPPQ
Protocol: as §1, §4, §5, §6, §7

Row | Molecule | IL-1β production (wild-type GM-CSF BMDMs) | IL-6 production (wild-type GM-CSF BMDMs) | MIP-2 production (wild-type GM-CSF BMDMs) | TNF production (wild-type GM-CSF BMDMs) | Th1 immune response / adjuvant activity in vivo (C57BL/6 mice; s.c. OVA 200 μg + adjuvant 0.3 μmol, oil-in-water emulsion) | footpad swelling (C57BL/6 mice; s.c. OVA 200 μg + adjuvant 0.3 μmol, OVA challenge 100 μg/footpad) | IL-17 production by splenocytes restimulated with OVA (C57BL/6 mice; s.c. OVA 200 μg + adjuvant 0.3 μmol, restimulation 10, 30 or 100 μg/mL OVA) | antigen specific IFN-γ production, all concentrations of OVA (C57BL/6 mice; s.c. OVA 200 μg + adjuvant 0.3 μmol, splenocytes restimulated with 10, 30 or 100 μg/mL OVA) | IgG1 antibody production (C57BL/6 mice; serum, ELISA) | IgG2b antibody production (C57BL/6 mice; serum, ELISA) | IgG2c antibody production (C57BL/6 mice; serum, ELISA) | production of OVA-specific IgG antibodies (C57BL/6 mice; serum, ELISA) | binding to hMincle-Ig (ELISA, OD at 450 nm) (hMincle-Ig) | binding to mMincle-Ig (ELISA, OD at 450 nm) (mMincle-Ig) | activation of hMincle NFAT-GFP reporter cells (GFP by flow cytometry) (hMincle+FcRγ) | activation of mMincle NFAT-GFP reporter cells (GFP by flow cytometry) (mMincle+FcRγ)
1 | CCCCCCCCCCCCCCCCCCCCCC(=O)OC[C@H]1O[C@H](O[C@H]2O[C@H](COC(=O)CCCCCCCCCCCCCCCCCCCCC)[C@@H](O)[C@H](O)[C@H]2O)[C@H](O)[C@@H](O)[C@@H]1O [TDB, trehalose dibehenate, reference compound] | significant production | significant production | significant production | significant production | limited efficacy | neither 9a nor TDB induced any | neither 9a nor TDB induced any | did not lead to a significant increase | showed increases | showed increases | showed increases | elevated the production of IgG antibodies | – | – | – | –
2 | trehalose dimycolate [TDM, reference compound] | significant production | significant production | significant production | significant production | – | – | – | – | – | – | – | – | – | – | – | –
3 | COc1ccc(C(=O)OCC2O[C@H](O[C@H]3OC(COC(=O)c4ccc(OC)cc4O)[C@@H](O)C(O)C3O)C(O)C(O)[C@@H]2O)c(O)c1 (stereo partly drawn) [9d, 6,6′-Di-O-(2-hydroxy-4-methoxybenzoyl)-α,α′-D-trehalose] | did not induce the production of any of the cytokines measured | did not induce the production of any of the cytokines measured | did not induce the production of any of the cytokines measured | did not induce the production of any of the cytokines measured | – | – | – | – | – | – | – | – | did not bind hMincle- or mMincle-Ig to any great extent | did not bind hMincle- or mMincle-Ig to any great extent | only modest activation of hMincle at a high ligand concentration | –
4 | O=C(OCC1O[C@H](O[C@H]2OC(COC(=O)c3ccc(O)cc3O)[C@@H](O)C(O)C2O)C(O)C(O)[C@@H]1O)c1ccc(O)cc1O (stereo partly drawn) [9e, 6,6′-Di-O-(2,4-dihydroxybenzoyl)-α,α′-D-trehalose] | did not induce the production of any of the cytokines measured | did not induce the production of any of the cytokines measured | did not induce the production of any of the cytokines measured | did not induce the production of any of the cytokines measured | – | – | – | – | – | – | – | – | did not bind hMincle- or mMincle-Ig to any great extent | did not bind hMincle- or mMincle-Ig to any great extent | – | did not significantly activate mMincle

Source: US11510980B2, “Brartemicin analogues” (VICTORIA LINK LTD, priority 2017, dated 2022)
